PMC10814725, “In Vitro Anti-Inflammatory Study of Limonoids Isolated from Chisocheton Plants” (Current Issues in Molecular Biology, 2024)
Read-outs that look alike come from different tables or passages of the source.

What was measured:
in vitro = type: cell-based; settings: mouse
Description: (§1) The viability of HEK-Blue^TM hTLR4, […], and THP-1 cells was evaluated using the Dojindo Cell Counting Kit-8 (CCK-8) according to the manufacturer’s instructions. The viability of HEK-Blue^TM hTLR4 and THP-1 cells was assessed under identical conditions to the corresponding assay treatments. HEK-Blue^TM hTLR4 cells (2 × 10^4 cells/well) were seeded in 96-well plates and serum-starved for 24 h at 37 °C in a 5% CO2 atmosphere. After incubation, the culture medium was aspirated, and the cells were washed with saline. High-glucose D-MEM supplemented with 0.1% FBS and 1% penicillin–streptomycin was added and pretreated with or without the 17 limonoids at a concentration of 20 µM for 1 h, followed by LPS addition at a concentration of 10 ng/mL. After 18 h of incubation, a 10% (v/v) CCK-8 solution was added to each well and incubated at 37 °C for 1 h, and cell viability was calculated.

TNF-α = assay: ELISA of TNF-α production in LPS-stimulated THP-1 cells; type: cell-based, human
IL-6 = assay: ELISA of IL-6 production in LPS-stimulated THP-1 cells; type: cell-based, human; settings: for IC50: Homo sapiens, THP-1, 18 h, LPS-stimulated (10 ng/mL) THP-1 cells, 1, 5, 10, 20 µM, 18 h; for IL-6 SI (selectivity index, CC50/IC50): THP-1 CC50 / IL-6 IC50
Description: The logarithmic growth phase of THP-1 cells was achieved by seeding in 96-well plates at a density of 5 × 10^4 cells/well and differentiated for 24 h in the presence of PMA (0.5 μM solution in medium). After 24 h of incubation, the culture medium was removed from the 96-well plate and the cells were washed with PBS. […] The cells were pretreated with 17 limonoids at the corresponding concentration for 1 h, followed by the addition of LPS (10 ng/mL) and then incubation at 37 °C for 18 h. Finally, 50 μL of each culture supernatant solution was taken to determine the concentrations of IL-6, MCP-1, and IL-1β using the corresponding commercially available human ELISA kits following the manufacturer’s instructions. The analyte concentration in the supernatant was measured in pg/mL, and the inhibition level was expressed as a fold change compared to the LPS (−) control group. To determine the IC50 value, the dose-response data were normalized to the LPS-stimulated-only group, and the percentage of inhibition was calculated using the following formula: % Inhibition=(Absorbance of LPS+ control−Absorbance of compound treatment with LPS)/(Absorbance of LPS+ control−Absorbance of LPS− control)×100
(§2) Furthermore, the % inhibition data were interpolated into linear equations to determine the IC50 values.

phosphorylated-p38 MAPK = assay: Western blotting of phosphorylated-p38 MAPK in LPS-stimulated THP-1 cells; type: cell-based, human; settings: 10 µM, LPS 10 ng/mL, 18 h, compared to LPS (+) group
Description: THP-1 cells were seeded at a density of 1 × 10^6 cells/well in 24-well plates. The cells were then pretreated with a concentration of 10 µM of compounds 3, 5, 9, or 15 for 1 h. Subsequently, LPS (10 ng/mL) was added to the cells, which were incubated for 18 h. The protein concentrations were determined using a bicinchoninic acid (BCA) assay kit.
For Western blot analysis, proteins were separated by SDS-PAGE and transferred onto a polyvinylidene fluoride (PVDF) membrane. The membranes were blocked with 2.5% BSA in Tris-buffered saline-Tween (TBST) for 1 h at room temperature. After three washes with TBST, the membranes were incubated with a diluted primary antibody solution (anti-phosphorylated-p38 MAPK or anti-p38 MAPK) at a 1:1000 dilution for 1 h at room temperature. After three washes with TBS-T, the membranes were incubated with a secondary antibody conjugated to horseradish peroxidase (HRP; 1:4000 dilution) for 30 min at room temperature and subsequently detected by chemiluminescence. Finally, the bands were visualized and quantified using an ImageQuant 800 GxP system (Cytiva, MA, USA). The results were expressed as ratios relative to the reference protein β-actin.

[1] = Cell viability by CCK-8, THP-1 cells; type: cell-based; settings: human, PMA-differentiated THP-1 cells; for CC50 at 18 h: concentration causing 50% cytotoxicity against THP-1 cells
Description: as §1
The THP-1 cells at 5 × 10^4 cells/well were differentiated for 24 h in the presence of PMA (0.5 μM solution in medium). After 24 h of incubation, the culture medium was removed from the 96-well plate and the cells were washed with PBS. Fresh RPMI-1640 medium supplemented with 0.1% FBS and 1% penicillin–streptomycin was added to each well and incubated at 37 °C for overnight. The cells were pretreated with 17 limonoids at the corresponding concentration for 1 h followed by the addition of LPS (10 ng/mL) and incubated at 37 °C for 18 h. Furthermore, CCK-8 solution was added to each well with a final concentration was 10% (v/v) and incubated at 37 °C. After 1 h, the absorbance of each well was measured at […] by using a microplate reader (BioTek Cytation 5 Cell Imaging Multimode Reader). Cell viability was calculated using the following formula: % Cell viability=(Absorbance of sample−Absorbance of Background)/(Absorbance of control−Absorbance of Background)×100 where the absorbance of the sample is the absorbance of cells treated by the compound with or without LPS, the absorbance of the control is the absorbance of LPS (−)-treated cells, and the background absorbance is the absorbance of a well containing only the medium. The results were expressed as 100% cell viability.

[2] = Cell viability by CCK-8, HEK-Blue hTLR4 cells; type: cell-based; settings: human
Description: as §1

[3] = test system: TNF-α, IL-6, IL-1β, and MCP-1; assay: ELISA of pro-inflammatory markers overall (TNF-α, IL-6, IL-1β, MCP-1) in LPS-stimulated THP-1 cells; type: cell-based; settings: Homo sapiens, read-out: Overall IC50 values for the evaluated pro-inflammatory markers
Description: The logarithmic growth phase of THP-1 cells was achieved by seeding in 96-well plates at a density of 5 × 10^4 cells/well and differentiated for 24 h in the presence of PMA (0.5 μM solution in medium). After 24 h of incubation, the culture medium was removed from the 96-well plate and the cells were washed with PBS. Fresh RPMI-1640 medium supplemented with 0.1% FBS and 1% Penicillin–Streptomycin was added to each well and incubated at 37 °C overnight. The cells were pretreated with 17 limonoids at the corresponding concentration for 1 h, followed by the addition of LPS (10 ng/mL) and then incubation at 37 °C for 18 h. Finally, 50 μL of each culture supernatant solution was taken to determine the concentrations of IL-6, MCP-1, and IL-1β using the corresponding commercially available human ELISA kits following the manufacturer’s instructions. The analyte concentration in the supernatant was measured in pg/mL, and the inhibition level was expressed as a fold change compared to the LPS (−) control group. To determine the IC50 value, the dose-response data were normalized to the LPS-stimulated-only group, and the percentage of inhibition was calculated using the following formula: % Inhibition=(Absorbance of LPS+ control−Absorbance of compound treatment with LPS)/(Absorbance of LPS+ control−Absorbance of LPS− control)×100
as §2

[4] = test system: TLR4-dependent NF-kB activation in HEK-Blue hTLR4 cells; assay: SEAP reporter gene assay, antagonist effect on LPS-stimulated TLR4-dependent NF-κB activation; type: cell-based, human; settings: 20 µM, LPS 10 ng/mL, 18 h, vs. LPS stimulated-only group
Description: The SEAP Reporter Gene Assay was conducted as previously described. HEK-Blue^TM hTLR4 cells (2 × 10^4 cells/well) were seeded in 96-well plates and were serum-starved for 24 h at 37 °C in a 5% carbon dioxide atmosphere. After incubation, the culture medium was aspirated, and the cells were washed with saline. High-glucose D-MEM supplemented with 0.1% FBS and 1% penicillin-streptomycin was added and treated with or without the 17 limonoids at a concentration of 20 µM for 1 h, followed by LPS addition at a concentration of 10 ng/mL for the LPS-stimulated group. After incubation at 37 °C for 18 h, the supernatants were collected and PNPP in PBS solution (0.8 mM, 100 μL) was added, followed by 4 h of shading at 25 °C. The optical density (OD) of the samples was measured at 405 nm using a microplate reader (BioTek Cytation 5 Cell Imaging Multimode Reader, Agilent Technologies, Santa Clara, CA, USA).

[5] = LPS 10 ng/mL, read-out: Viability Cell (%) THP-1 LPS-Induced (10 ng/mL)
[6] = without LPS, read-out: Viability Cell (%) THP-1 Without LPS
[7] = Viability Cell (%) HEK-Blue hTLR4 LPS-Induced (10 ng/mL)
[8] = Viability Cell (%) HEK-Blue hTLR4 Without LPS

| SMILES | viability at 5 µM (in vitro) | viability at 10 µM (in vitro) | viability at 20 µM (in vitro) | IC50 (TNF-α; Homo sapiens, THP-1, 18 h, LPS-stimulated (10 ng/mL) THP-1 cells, 1, 5, 10, 20 µM, 18 h, read-out: TNF-α IC50) | TNF-α SI (selectivity index, CC50/IC50) (TNF-α; THP-1 CC50 / TNF-α IC50) | IC50 (IL-6) | IL-6 SI (selectivity index, CC50/IC50) (IL-6) | Effect on p-p38 MAPK levels (phosphorylated-p38 MAPK) | viability at 18 h, 10 µM [1, 5] | viability at 18 h, 10 µM [1, 6] | CC50 at 18 h [1] | viability at 18 h, 20 µM [2, 7] | viability at 18 h, 20 µM [2, 8] | IC50 [3] | Inhibition of SEAP release (NF-κB activity inhibition) [4] |
| --- | --- | --- | --- | --- | --- | --- | --- | --- | --- | --- | --- | --- | --- | --- | --- |
| CC(=O)O[C@@H]1C[C@H]2C(C)(C)C(=O)C=C[C@]2(C)[C@H]2CC[C@]3(C)C(=CC[C@H]3C3CCOC3=O)[C@@]21C (stereo partly drawn) [Compound 15, pentandricine B] | 92.8 ± 1.79% | 91.9 ± 3.59% | 90.9 ± 4.95% | 16.4 µM | 5.88 | 7.37 µM | 13.11 | significantly suppressed | > 99.9% | > 99.9% | 96.6 µM | 84.4 ± 18.7% | > 99.9% | < 20 µM | – |
| C[C@]12C3=CC[C@@H](C4=CC(O)OC4=O)[C@]3(C)CC[C@@H]1[C@@]1(C)C(=O)C=C[C@@]3(C)CO[C@@H]([C@H]2O)[C@H]13 (stereo partly drawn) [Compound 14, pentandricine] | > 99.9% | 88.2 ± 3.86% | 91.3 ± 4.19% | – | – | – | – | – | 91.1 ± 9.03% | > 99.9% | – | > 99.9% | > 99.9% | < 20 µM | – |
| CC(=O)O[C@@H]1C[C@H]2C(C)(C)C(=O)C=C[C@]2(C)[C@H]2CC[C@@]3(C)[C@H](c4ccoc4)C[C@H]4O[C@]43[C@@]21C [Compound 13, trichilenone acetate] | > 99.9% | > 99.9% | 91.9 ± 4.37% | – | – | – | – | – | > 99.9% | 90.8 ± 3.23% | – | > 99.9% | 92.4 ± 10.6% | – | significantly inhibited SEAP release |
| CC1(C)C(=O)C=C[C@]2(C)[C@H]3CC[C@]4(C)C(=CC[C@H]4C4CCOC4=O)[C@]3(C)[C@H](O)C[C@@H]12 (stereo partly drawn) [Compound 16, pentandricine C] | 91.8 ± 3.18% | 81.3 ± 7.05% | 89.4 ± 7.08% | – | – | 5.69 µM | 19.40 | significantly suppressed | > 99.9% | 90.4 ± 7.6% | 110 µM | > 99.9% | > 99.9% | < 20 µM | – |
